Literature values as cited in US20070184040A1, “Compositions for delivery of coenzyme Q10” (priority 2006, published 2007).

SMILES: COC1=C(OC)C(=O)C(C/C=C(\C)CC/C=C(\C)CC/C=C(\C)CC/C=C(\C)CC/C=C(\C)CC/C=C(\C)CC/C=C(\C)CC/C=C(\C)CC/C=C(\C)CCC=C(C)C)=C(C)C1=O [CoQ10, Coenzyme Q10]
- solubility in most hydrophilic solvents, such as water: very poorly soluble
